This is an account of results in patent publication US20050266420A1, “Multigene predictors of response to chemotherapy” (Board of Regents, The University of Texas System, priority 2004, published 2005).

The subject of test [1] is ZR75.1 breast cancer cells. As to the kind of experiment: ATP cell viability assay (CellTiter-Glo) after siRNA transfection. Particulars: 48 h drug exposure; for Effect of Tau down-regulation on sensitivity to the drug: ZR75.1 cells, Tau siRNA; for IC50: Homo sapiens, ZR-75-1, 48 h, read-out: IC50 concentration of paclitaxel. Type of test: cell-based, human. From the text: Small interfering RNA studies. Two siRNA oligonucleotides directed against microtubule associated protein Tau (genbank accession number NM_016835.1) were ordered from Qiagen. Breast cancer cell lines were screened for Tau protein expression by Western blot analysis using a monoclonal anti-Tau antibody (#13-1400: clone T14, Zymed, CA). ZR75.1 cells were selected for siRNA studies and were transfected with a control siRNA (directed against lamin) or 2 distinct anti-Tau siRNA (5′-[…]-3′ (SEQ ID NO:194) and 5′-[…]-3′) (SEQ ID NO:195) constructs. Five hundred nanograms of siRNA was transfected using 1.5 μl RNAiFect (Qiagen) onto 1-3×10^4 cells in 96-well plates or 5 μg of siRNA was transfected using 15 μl RNAiFect (Qiagen) onto 1.5-4×10^5 cells in 6-well plates following the manufactures instructions.
In vitro apoptosis and cell growth assays. Twenty-four hours after siRNA transfection, the medium was changed and cells were treated with various concentrations of paclitaxel and epirubicin. Proliferation rates were determined with CellTiter-Glo® Luminescent Cell Viability Assay, (Promega) after 48 hours of drug exposure according to the manufacturer's instructions. Chemosensitivity was determined from three separate experiments. Growth curves were generated with GraphPad Prism 4.01 (GraphPad Software, San Diego, Calif.). The effect of Tau expression on drug uptake was assayed using a fluorescent-conjugated paclitaxel (Oregon Green 488 paclitaxel, Molecular probes, Eugene, Oreg.) or spontaneously fluorescent epirubicin (Kimichi-Sarfaty et al., 2002; Harris et al., 2003). Forty-eight hours after siRNA transfection, 3×10^5 cells were trypsinized and resuspended in 1 ml of regular medium containing 1 μM of fluorescent paclitaxel or 16 μM of epirubicin and incubated at 37° C. for 20 to 80 min. The pellet was resuspended in 400 μl of phosphate-buffered saline before FACS analysis (Kimichi-Sarfaty et al., 2002) using CellQuest software (BD Biosciences, San Jose, Calif.). Data were recorded by the FACScan as arbitrary units. The amount of fluorescence per cell (arbitrary fluorescence units) was taken as the measure of drug uptake. […] Fluorescence paclitaxel uptake was also observed using an inverted fluorescent microscope.
Down regulation of Tau expression in breast cancer cells increases sensitivity to paclitaxel in vitro. […] The inventors assessed Tau protein expression in breast cancer cell lines with Western blot using an anti-Tau monoclonal antibody that recognizes Tau irrespectively of phosphorylation status. […] Twenty-four hours after siRNA transfection, cells were exposed to various concentrations of paclitaxel or epirubicin and cell viability was assessed after 48 h of drug exposure using an ATP cell viability assay. […]
Background: In ATP-based viability assays light output follows the ATP content of the culture.

Test [2] relates to ZR75.1 cells. The test is described as follows: Fluorescent drug uptake by FACS in siRNA-transfected cells. In kind it is cell-based, human. Particulars: 16 μM epirubicin, versus lamin knocked-down cells. The procedure:
In vitro apoptosis and cell growth assays. Twenty-four hours after siRNA transfection, the medium was changed and cells were treated with various concentrations of paclitaxel and epirubicin. Proliferation rates were determined with CellTiter-Glo® Luminescent Cell Viability Assay, (Promega) after 48 hours of drug exposure according to the manufacturer's instructions. Chemosensitivity was determined from three separate experiments. Growth curves were generated with GraphPad Prism 4.01 (GraphPad Software, San Diego, Calif.). […] Data were recorded by the FACScan as arbitrary units. The amount of fluorescence per cell (arbitrary fluorescence units) was taken as the measure of drug uptake. […] Fluorescence paclitaxel uptake was also observed using an inverted fluorescent microscope.
Tau protein reduces paclitaxel binding to tubulin and interferes with the paclitaxel induced stabilization in vitro. […] To estimate paclitaxel binding to tubulin in the presence or absence of Tau protein, the uptake of fluorescent paclitaxel in Tau siRNA-treated (Tau knock down) cells and lamin siRNA-treated control cells were measured. Forty-four hours after siRNA transfection, cells were exposed to 1 μM Oregon green-paclitaxel for 20 to 80 min and then analyzed by FACS. The amount of fluorescent paclitaxel in the cells can be assessed by plotting fluorescence intensity in the X-axis and cell count on the Y-axis. […]
On the technique in general: Flow cytometry measures light scatter and fluorescence of single cells or particles in a stream.

Test [3] has as its system Bovine brain tubulin. The test is described as follows: Tubulin polymerization assay (OD340). In kind it is biochemical. Particulars: tubulin 20 μM, 37° C.; 20 μM paclitaxel or 15 μM Tau. On the procedure: (§1) Tubulin polymerization assays. Bovine brain tubulin (2 mg/ml) polymerization assays were performed in 100-μl volumes at 37° C. using the Tubulin Polymerization Assay Kit (Cytoskeleton, Inc., Denver, Colo.) and following the manufacturer recommendations. Purified Tau protein was purchased from Cytoskeleton (ref #TA01). Fluorescent Bodipy-paclitaxel was purchased from Molecular probes (Bodipy 564/570, Molecular probes, Eugene, Oreg.). OD340 was measured every 30 seconds for 30-60 min. The plots show the change in turbidity after correcting the data for the baseline absorbance.
Microtubules are formed in vitro by non-covalent polymerization of tubulin dimers (Desai et al., 1997; Hong et al., 1998). Microtubule associated proteins, GTP and paclitaxel increase microtubule polymerization rates which can be measured by observing an increase in absorbance at 340 nm (Lu and Wood, 1993; Rao et al., 1999). The inventors hypothesized that Tau may reduce pharmacological tubulin polymerization induced by paclitaxel. The inventors performed a kinetic spectrophotometric tubulin polymerization assay in which Tau and paclitaxel were added together to the tubulin mixture. […] Next, tubulin was pre-incubated with Tau before adding paclitaxel which approximates a more physiological sequence of drug exposure. […]

The subject of test [4] is tubulin. The test is described as follows: Competition for fluorescent bodipy-paclitaxel binding to tubulin. Particulars: 30 min pre-incubation; Tau 15 μM or unlabelled paclitaxel 20 μM; fluorescent paclitaxel 5 μM. On the set-up: species or system bovine. On the procedure: as §1
To examine if paclitaxel binding to tubulin is affected by Tau expression, the inventors used fluorescent bodipy-paclitaxel. When fluorescent paclitaxel binds to microtubules it results in enhanced fluorescence. The inventors used this characteristic to assess the competition between Tau and paclitaxel in vitro. Fluorescent paclitaxel (5 μM) was added to a tubulin solution after 30 minutes pre-incubation with Tau (15 μM) or regular (non-fluorescent) paclitaxel (20 μM), or reaction buffer alone and fluorescence was measured 30 minutes later. […] In the control wells, the addition of fluorescent paclitaxel induced polymerization and after 30 minutes, fluorescence emission was high.

Structures are written as SMILES. Where two headings read alike, the source gives them in different places.

`COc1cccc2c1C(=O)c1c(O)c3c(c(O)c1C2=O)C[C@@](O)(C(=O)CO)C[C@@H]3O[C@H]1C[C@H](N)[C@@H](O)[C@H](C)O1` [epirubicin]: the “Effect of Tau down-regulation on sensitivity to the drug” value in test [1] was “did not result in increased sensitivity”. Besides, in test [2], the “Fluorescence uptake in Tau knocked-down cells” value was “slightly decreased”.
`CC(=O)O[C@H]1C(=O)[C@@]2(C)[C@H]([C@H](OC(=O)c3ccccc3)[C@]3(O)C[C@H](OC(=O)[C@H](O)[C@@H](NC(=O)c4ccccc4)c4ccccc4)C(C)=C1C3(C)C)[C@]1(OC(C)=O)CO[C@@H]1C[C@@H]2O` [paclitaxel]: the IC50 in test [1] (ZR75.1 cells with Tau siRNA knock down) is 100 nM; in test [1] (ZR75.1 control cells (lamin siRNA or no siRNA)) it was over 10000 nM. In addition, the “Effect of Tau down-regulation on sensitivity to the drug” value in test [1] is “significantly increased the sensitivity”. Also, in test [3], the Tubulin polymerization entry was “induced tubulin polymerization”. In addition, in test [4], the “Competition with fluorescent paclitaxel for binding to microtubules” value is “very high”.
